Values quoted from earlier work, collected in patent US12691128B2, “Methods of treating eosinophilic esophagitis and reducing candidiasis” (Ellodi Pharmaceuticals, L.P., priority 2019, dated 2026).
Where two headings read alike, the source gives them in different places. Values belong to the compound of their own block, whether it stands above or below them.

Tests used:
glucocorticoid receptor = target: T1, glucocorticoid receptor (Homo sapiens, UniProt P04150); design: reference not given here
T1 sequence (P04150 1-777): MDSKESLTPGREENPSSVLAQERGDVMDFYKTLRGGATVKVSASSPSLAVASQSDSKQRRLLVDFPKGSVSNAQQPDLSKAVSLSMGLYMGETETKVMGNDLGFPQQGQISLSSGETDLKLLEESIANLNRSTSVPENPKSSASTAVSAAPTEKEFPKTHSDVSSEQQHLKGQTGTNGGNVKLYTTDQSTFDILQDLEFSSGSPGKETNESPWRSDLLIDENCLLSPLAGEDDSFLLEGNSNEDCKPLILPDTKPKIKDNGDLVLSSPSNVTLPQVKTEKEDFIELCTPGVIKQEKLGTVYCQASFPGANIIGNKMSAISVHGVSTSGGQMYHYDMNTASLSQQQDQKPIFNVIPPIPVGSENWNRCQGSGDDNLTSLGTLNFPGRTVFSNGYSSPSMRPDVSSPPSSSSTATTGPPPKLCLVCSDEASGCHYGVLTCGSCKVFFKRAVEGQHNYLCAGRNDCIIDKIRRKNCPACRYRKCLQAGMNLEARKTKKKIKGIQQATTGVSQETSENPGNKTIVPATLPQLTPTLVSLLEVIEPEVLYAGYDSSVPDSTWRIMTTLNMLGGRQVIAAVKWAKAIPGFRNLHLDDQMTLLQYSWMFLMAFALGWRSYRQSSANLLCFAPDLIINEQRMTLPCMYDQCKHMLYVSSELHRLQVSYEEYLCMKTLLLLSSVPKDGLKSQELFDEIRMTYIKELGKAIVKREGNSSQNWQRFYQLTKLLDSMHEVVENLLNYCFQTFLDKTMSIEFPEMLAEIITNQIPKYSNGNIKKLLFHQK

[1] = reported
[2] = target: cytochrome (CYP) isoenzyme 2C9 (Homo sapiens, UniProt P11712)
Chain of cytochrome (CYP) isoenzyme 2C9 (P11712 whole entry): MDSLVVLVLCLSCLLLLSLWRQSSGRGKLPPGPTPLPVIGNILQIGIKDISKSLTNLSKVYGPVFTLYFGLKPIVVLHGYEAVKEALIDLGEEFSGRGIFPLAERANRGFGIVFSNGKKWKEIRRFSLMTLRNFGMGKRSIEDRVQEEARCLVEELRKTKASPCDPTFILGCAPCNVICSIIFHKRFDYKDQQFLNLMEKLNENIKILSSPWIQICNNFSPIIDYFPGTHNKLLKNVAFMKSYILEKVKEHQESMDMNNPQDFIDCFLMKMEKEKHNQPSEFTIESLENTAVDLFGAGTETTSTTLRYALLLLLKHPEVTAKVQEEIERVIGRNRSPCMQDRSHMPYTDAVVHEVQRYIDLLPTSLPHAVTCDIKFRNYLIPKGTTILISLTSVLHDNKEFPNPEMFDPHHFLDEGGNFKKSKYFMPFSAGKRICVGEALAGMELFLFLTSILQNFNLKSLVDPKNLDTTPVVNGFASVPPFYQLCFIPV

CYP3A4 = CYP3A4 (Homo sapiens, UniProt P08684)
Chain of CYP3A4 (P08684 whole entry): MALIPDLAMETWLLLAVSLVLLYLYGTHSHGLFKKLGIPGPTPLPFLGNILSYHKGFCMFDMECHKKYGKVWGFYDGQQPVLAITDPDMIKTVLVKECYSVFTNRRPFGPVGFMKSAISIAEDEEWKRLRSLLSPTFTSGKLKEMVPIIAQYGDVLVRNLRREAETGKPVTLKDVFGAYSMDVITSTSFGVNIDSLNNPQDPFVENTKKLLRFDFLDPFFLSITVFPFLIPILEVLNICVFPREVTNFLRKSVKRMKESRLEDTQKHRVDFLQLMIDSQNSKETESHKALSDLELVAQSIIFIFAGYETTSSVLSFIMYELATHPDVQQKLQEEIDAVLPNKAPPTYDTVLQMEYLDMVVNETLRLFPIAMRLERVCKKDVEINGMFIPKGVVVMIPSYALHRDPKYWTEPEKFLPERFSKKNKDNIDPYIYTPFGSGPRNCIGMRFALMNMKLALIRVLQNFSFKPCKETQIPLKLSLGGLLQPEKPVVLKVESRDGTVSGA

Structure (SMILES): CCC(=O)O[C@]1(C(=O)SCF)[C@H](C)C[C@H]2[C@@H]3C[C@H](F)C4=CC(=O)C=C[C@]4(C)[C@@]3(F)[C@@H](O)C[C@@]21C [Fluticasone propionate, S-(fluoromethyl)-6α,9-difluoro-11β, 17-dihydroxy-16α-methyl-3-oxoandrosta-1,4-diene-17β-carbothioate, 17-propanoate]
Solubility (acetone, dichloromethane, ethyl acetate and chloroform): sparingly soluble | Solubility (dimethyl sulfoxide and dimethylformamide): freely soluble | Solubility (methanol and 95% ethanol): slightly soluble | Solubility (water): practically insoluble | Oral bioavailability [1]: less than 1% | Relative Glucocorticoid Receptor Binding Affinity (glucocorticoid receptor): 1775

Structure (SMILES): CC1(C)O[C@@H]2C[C@H]3[C@@H]4CCC5=CC(=O)C=C[C@]5(C)[C@@]4(F)[C@@H](O)C[C@]3(C)[C@]2(C(=O)CO)O1 [Triamicinolone acetonide]
Relative Glucocorticoid Receptor Binding Affinity (glucocorticoid receptor): 233

Structure (SMILES): C[C@]12C=CC(=O)C=C1CC[C@@H]1[C@@H]2[C@@H](O)C[C@@]2(C)[C@H]1C[C@H]1O[C@@H](C3CCCCC3)O[C@]12C(=O)CO [des-CIC]
Relative Glucocorticoid Receptor Binding Affinity (glucocorticoid receptor): 12 (1200)

Structure (SMILES): OC(Cn1cncn1)(Cn1cncn1)c1ccc(F)cc1F [fluconazole]
Inhibition of cytochrome (CYP) isoenzyme 2C9 [2]: potent inhibitor | Inhibition of CYP3A4 (CYP3A4): moderate inhibitor

Further lines, results first:

Relative Glucocorticoid Receptor Binding Affinity (glucocorticoid receptor): 190
Structure (SMILES): CC1(C)O[C@@H]2C[C@H]3[C@@H]4C[C@H](F)C5=CC(=O)C=C[C@]5(C)[C@H]4[C@@H](O)C[C@]3(C)[C@]2(C(=O)CO)O1 [Flunisolide]

Relative Glucocorticoid Receptor Binding Affinity (glucocorticoid receptor): 12
Structure (SMILES): C[C@]12C=CC(=O)C=C1CC[C@@H]1[C@@H]2[C@@H](O)C[C@@]2(C)[C@H]1CC[C@]2(O)C(=O)CO [Prednisolone]
